Assay results from ChEMBL document CHEMBL1201861, “Genomics of Drug Sensitity in Cancer screening data, Wellcome Trust Sanger Institute”.

Legend:
Assay in all cases: cells
Conditions in all cases: Homo sapiens
[1] = system: SW1088; assay type: functional, cell-based;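 also: growth inhibition of human SW1088 cells, read out by a cell viability assay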
Description: SANGER: Inhibition of human SW1088 cell growth in a cell viability assay.

[2] = system: SK-MEL3; assay type: functional, cell-based, SK-MEL-3;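 also: growth inhibition of human SK-MEL-3 cells, read out with a cell viability assay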
Description: SANGER: Inhibition of human SK-MEL-3 cell growth in a cell viability assay.

[3] = system: COR-L23; assay type: functional, cell-based;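 also: cell viability assay measuring how strongly compounds suppress growth of COR-L23 cells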
Description: SANGER: Inhibition of human COR-L23 cell growth in a cell viability assay.

[4] = system: PFSK-1; assay type: functional, cell-based;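 also: cell viability assay measuring how strongly compounds suppress growth of human PFSK-1 cells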
Description: SANGER: Inhibition of human PFSK-1 cell growth in a cell viability assay.

[5] = system: NB12; assay type: functional, cell-based;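 also: growth inhibition of human NB12 cells, read out by a cell viability assay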
Description: SANGER: Inhibition of human NB12 cell growth in a cell viability assay.

[6] = system: YAPC; assay type: functional, cell-based;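 also: growth inhibition of YAPC cells, measured with a cell viability assay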
Description: SANGER: Inhibition of human YAPC cell growth in a cell viability assay.

[7] = system: SW1990; assay type: functional, cell-based;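 also: cell growth inhibition determined with a viability assay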
Description: SANGER: Inhibition of human SW1990 cell growth in a cell viability assay.

[8] = system: 8305C; assay type: functional, cell-based
Description: SANGER: Inhibition of human 8305C cell growth in a cell viability assay.

[9] = system: U2OS; assay type: functional, cell-based, U-2-OS;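 also: growth inhibition of human U-2-OS cells, determined with a cell viability assay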
Description: SANGER: Inhibition of human U-2-OS cell growth in a cell viability assay.

[10] = system: C32; assay type: functional, cell-based;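 also: cell viability assay, with IC50 reflecting inhibition of C32 cell growth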
Description: SANGER: Inhibition of human C32 cell growth in a cell viability assay.

[11] = system: SK-HEP1; assay type: functional, cell-based, SK-HEP-1;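 also: cell viability readout used to quantify reduction in proliferation of human SK-HEP-1 cells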
Description: SANGER: Inhibition of human SK-HEP-1 cell growth in a cell viability assay.

[12] = system: DMS-273; assay type: functional, cell-based
Description: SANGER: Inhibition of human DMS-273 cell growth in a cell viability assay.

[13] = system: S-117; assay type: functional, cell-based
Description: SANGER: Inhibition of human S-117 cell growth in a cell viability assay.

[14] = system: NCI-H2030; assay type: functional, cell-based;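 also: growth inhibition of human NCI-H2030 cells, read out by a cell viability assay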
Description: SANGER: Inhibition of human NCI-H2030 cell growth in a cell viability assay.

[15] = system: HCT-15; assay type: functional, cell-based;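 also: cell viability readout, IC50 reflecting suppression of HCT-15 cell growth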
Description: SANGER: Inhibition of human HCT-15 cell growth in a cell viability assay.

[16] = system: NCI-H1573; assay type: functional, cell-based;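 also: growth inhibition of NCI-H1573 cells, read out with a cell viability assay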
Description: SANGER: Inhibition of human NCI-H1573 cell growth in a cell viability assay.

[17] = system: MKN-7; assay type: functional, cell-based;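 also: growth inhibition of MKN-7 cells, read out with a cell viability assay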
Description: SANGER: Inhibition of human MKN7 cell growth in a cell viability assay.

[18] = system: NCI-H520; assay type: functional, cell-based;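 also: growth inhibition of NCI-H520 cells, measured by a cell viability assay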
Description: SANGER: Inhibition of human NCI-H520 cell growth in a cell viability assay.

[19] = system: A2058; assay type: functional, cell-based;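 also: reduction of A2058 cell growth, read out with a viability assay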
Description: SANGER: Inhibition of human A2058 cell growth in a cell viability assay.

[20] = system: HEC-1; assay type: functional, cell-based;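 also: growth inhibition of the cell line, read out with a cell viability assay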
Description: SANGER: Inhibition of human HEC-1 cell growth in a cell viability assay.

[21] = system: SBC-5; assay type: functional, cell-based;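 also: cell viability assay read-out, IC50 is the concentration that inhibits growth of the cells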
Description: SANGER: Inhibition of human SBC-5 cell growth in a cell viability assay.

[22] = system: G-401; assay type: functional, cell-based
Description: SANGER: Inhibition of human G-401 cell growth in a cell viability assay.

[23] = system: H4; assay type: functional, cell-based
Description: SANGER: Inhibition of human H4 cell growth in a cell viability assay.

[24] = system: CP50-MEL-B; assay type: functional, cell-based;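 also: growth inhibition of the human cell line, measured with a cell viability read-out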
Description: SANGER: Inhibition of human CP50-MEL-B cell growth in a cell viability assay.

[25] = system: HCC1806; assay type: functional, cell-based;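 also: growth inhibition of the cancer cell line, determined with a cell viability assay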
Description: SANGER: Inhibition of human HCC1806 cell growth in a cell viability assay.

[26] = system: HSC-4; assay type: functional, cell-based;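 also: growth inhibition of human HSC-4 cells, read out with a cell viability assay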
Description: SANGER: Inhibition of human HSC-4 cell growth in a cell viability assay.

[27] = system: OAW-42; assay type: functional, cell-based;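 also: growth inhibition of OAW-42 cells, read out with a cell viability assay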
Description: SANGER: Inhibition of human OAW-42 cell growth in a cell viability assay.

[28] = system: HCC1569; assay type: functional, cell-based;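 also: growth inhibition of human HCC1569 cells, read out with a cell viability assay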
Description: SANGER: Inhibition of human HCC1569 cell growth in a cell viability assay.

[29] = system: MDA-MB-175-VII; assay type: functional, cell-based
[30] = system: NCI-H1623; assay type: functional, cell-based;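 also: cell viability assay used as the read-out for growth inhibition of NCI-H1623 cells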
Description: SANGER: Inhibition of human NCI-H1623 cell growth in a cell viability assay.

[31] = system: NCI-H650; assay type: functional, cell-based;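 also: growth inhibition of NCI-H650 cells, read out by a viability assay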
Description: SANGER: Inhibition of human NCI-H650 cell growth in a cell viability assay.

[32] = system: SCC-25; assay type: functional, cell-based;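 also: growth inhibition of SCC-25 cells, measured with a cell viability assay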
Description: SANGER: Inhibition of human SCC-25 cell growth in a cell viability assay.

[33] = system: SW1710; assay type: functional, cell-based;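 also: growth inhibition of SW1710 cells, determined with a cell viability assay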
Description: SANGER: Inhibition of human SW1710 cell growth in a cell viability assay.

[34] = system: KYSE-520 cell line; assay type: functional, cell-based;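 also: growth inhibition of human KYSE-520 cells, read out with a viability assay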
Description: SANGER: Inhibition of human KYSE-520 cell growth in a cell viability assay.

[35] = system: HSC-3; assay type: functional, cell-based
Description: SANGER: Inhibition of human HSC-3 cell growth in a cell viability assay.

[36] = system: RERF-LC-MS; assay type: functional, cell-based;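 also: growth inhibition of human RERF-LC-MS cells, read out by a cell viability assay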
Description: SANGER: Inhibition of human RERF-LC-MS cell growth in a cell viability assay.

[37] = system: BHT-101; assay type: functional, cell-based
Description: SANGER: Inhibition of human BHT-101 cell growth in a cell viability assay.

[38] = system: MDA-MB-453; assay type: functional, cell-based
Description: SANGER: Inhibition of human MDA-MB-453 cell growth in a cell viability assay.

[39] = system: UMC-11; assay type: functional, cell-based;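 also: growth inhibition of UMC-11 cells, read out with a cell viability assay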
Description: SANGER: Inhibition of human UMC-11 cell growth in a cell viability assay.

[40] = system: UMUC3; assay type: functional, cell-based;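 also: growth inhibition of human UM-UC-3 cells, read out with a cell viability assay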
Description: SANGER: Inhibition of human UM-UC-3 cell growth in a cell viability assay.

[41] = system: KYSE-270; assay type: functional, cell-based;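 also: cell growth inhibition measured with a viability assay in the human KYSE-270 line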
Description: SANGER: Inhibition of human KYSE-270 cell growth in a cell viability assay.

[42] = system: CHP-212; assay type: functional, cell-based
Description: SANGER: Inhibition of human CHP-212 cell growth in a cell viability assay.

[43] = system: 647-V; assay type: functional, cell-based;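 also: growth inhibition of 647-V cells, read out with a cell viability assay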
Description: SANGER: Inhibition of human 647-V cell growth in a cell viability assay.

[44] = system: ChaGo-K-1; assay type: functional, cell-based;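 also: growth inhibition of ChaGo-K-1 cells, read out with a cell viability assay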
Description: SANGER: Inhibition of human ChaGo-K-1 cell growth in a cell viability assay.

For `C[C@]12O[C@H](C[C@]1(O)CO)n1c3ccccc3c3c4c(c5c6ccccc6n2c5c31)CNC4=O` [LESTAURTINIB], the IC50 [1] was 874 nM, the IC50 [2] was 160 nM and the IC50 [3] was 665 nM. For the same compound, the IC50 [4] was greater than 2000 nM, the IC50 [5] was 1310 nM and the IC50 [6] was greater than 2000 nM. It also gave an IC50 [7] of 1380 nM, an IC50 [8] greater than 2000 nM and an IC50 [9] of 82.9 nM. For the same compound, the IC50 [10] was 182 nM, the IC50 [11] was 31.3 nM and the IC50 [12] was greater than 2000 nM. For the same compound, the IC50 [13] was 1120 nM, the IC50 [14] was 1320 nM and the IC50 [15] was 566 nM. For the same compound, the IC50 [16] was 686 nM, the IC50 [17] was 1810 nM and the IC50 [18] was 203 nM. It also gave an IC50 [19] of 245 nM, an IC50 [20] of 374 nM and an IC50 [21] of 254 nM. It also gave an IC50 [22] of 439 nM, an IC50 [23] of 13.5 nM and an IC50 [24] of 632 nM. For the same compound, the IC50 [25] was 127 nM, the IC50 [26] was 203 nM and the IC50 [27] was 349 nM. The IC50 [28] was greater than 2000 nM, the IC50 [29] was 1140 nM and the IC50 [30] was 1650 nM. It also gave an IC50 [31] of 677 nM, an IC50 [32] of 758 nM and an IC50 [33] of 128 nM. The IC50 [34] was 1930 nM, the IC50 [35] was 46.8 nM and the IC50 [36] was 812 nM. For the same compound, the IC50 [37] was 464 nM, the IC50 [38] was 1910 nM and the IC50 [39] was 1120 nM. The IC50 [40] was 1150 nM, the IC50 [41] was 392 nM and the IC50 [42] was 82.2 nM. It also gave an IC50 [43] of 1000 nM and an IC50 [44] of 1960 nM.
Compound `C[C@]1(c2nc3c(C(N)=O)cccc3[nH]2)CCCN1` [VELIPARIB] has an IC50 [1] greater than 5000 nM, an IC50 [2] greater than 5000 nM and an IC50 [3] greater than 5000 nM. For the same compound, the IC50 [4] was greater than 5000 nM, the IC50 [5] was greater than 5000 nM and the IC50 [6] was greater than 5000 nM. It also gave an IC50 [7] greater than 5000 nM, an IC50 [8] greater than 5000 nM and an IC50 [9] greater than 5000 nM. It also gave an IC50 [10] greater than 5000 nM, an IC50 [11] greater than 5000 nM and an IC50 [12] greater than 5000 nM. The IC50 [13] was greater than 5000 nM, the IC50 [14] was greater than 5000 nM and the IC50 [15] was greater than 5000 nM. For the same compound, the IC50 [16] was greater than 5000 nM, the IC50 [17] was greater than 5000 nM and the IC50 [18] was greater than 5000 nM. It also gave an IC50 [19] greater than 5000 nM, an IC50 [20] greater than 5000 nM and an IC50 [21] greater than 5000 nM. For the same compound, the IC50 [22] was greater than 5000 nM, the IC50 [23] was greater than 5000 nM and the IC50 [24] was greater than 5000 nM. It also gave an IC50 [25] greater than 5000 nM, an IC50 [26] greater than 5000 nM and an IC50 [27] greater than 5000 nM. It also gave an IC50 [28] greater than 5000 nM, an IC50 [29] greater than 5000 nM and an IC50 [30] greater than 5000 nM. It also gave an IC50 [31] greater than 5000 nM, an IC50 [32] greater than 5000 nM and an IC50 [33] greater than 5000 nM. The IC50 [34] was greater than 5000 nM, the IC50 [35] was greater than 5000 nM and the IC50 [36] was greater than 5000 nM. The IC50 [37] was greater than 5000 nM, the IC50 [38] was greater than 5000 nM and the IC50 [39] was greater than 5000 nM. The IC50 [40] was greater than 5000 nM, the IC50 [41] was greater than 5000 nM and the IC50 [42] was greater than 5000 nM. It also gave an IC50 [43] greater than 5000 nM and an IC50 [44] greater than 5000 nM.
`CC[C@]1(O)C[C@@H]2CN(CCc3c([nH]c4ccccc34)[C@@](C(=O)OC)(c3cc4c(cc3OC)N(C)[C@H]3[C@@](O)(C(=O)OC)[C@H](OC(C)=O)[C@]5(CC)C=CCN6CC[C@]43[C@@H]65)C2)C1` [VINBLASTINE] gave an IC50 [1] of 17 nM, an IC50 [2] greater than 100 nM and an IC50 [3] of 3.62 nM. The IC50 [4] was 4.97 nM, the IC50 [5] was 61.4 nM and the IC50 [6] was 87 nM. For the same compound, the IC50 [7] was 61.4 nM, the IC50 [8] was 3.67 nM and the IC50 [9] was 25.7 nM. The IC50 [10] was greater than 100 nM, the IC50 [11] was 12.1 nM and the IC50 [12] was 3.4 nM. The IC50 [13] was 5.58 nM, the IC50 [14] was 27.7 nM and the IC50 [15] was 78.6 nM. It also gave an IC50 [16] of 30.7 nM, an IC50 [17] of 76.7 nM and an IC50 [18] of 30.1 nM. It also gave an IC50 [19] of 1.22 nM, an IC50 [20] of 11.4 nM and an IC50 [21] of 7.47 nM. It also gave an IC50 [22] of 8.67 nM, an IC50 [23] of 5.84 nM and an IC50 [24] of 13.1 nM. It also gave an IC50 [25] of 0.63 nM, an IC50 [26] of 2.36 nM and an IC50 [27] greater than 100 nM. For the same compound, the IC50 [28] was 92.3 nM, the IC50 [29] was greater than 100 nM and the IC50 [30] was greater than 100 nM. It also gave an IC50 [31] of 27.1 nM, an IC50 [32] of 15.7 nM and an IC50 [33] of 5.61 nM. The IC50 [34] was 47.6 nM, the IC50 [35] was 4.39 nM and the IC50 [36] was 15.1 nM. For the same compound, the IC50 [37] was 31.4 nM, the IC50 [38] was 3.29 nM and the IC50 [39] was 76.2 nM. The IC50 [40] was 5.11 nM, the IC50 [41] was 9.63 nM and the IC50 [42] was 3.55 nM. It also gave an IC50 [43] of 23 nM and an IC50 [44] of 1.01 nM.
